ChEMBL document CHEMBL1201862, “PubChem BioAssay data set” (2004)
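Method: 48-hour compound exposure of cells in 96-well plates, five concentrations, linear interpolation of endpoints. GI50: concentration for 50% inhibition of growth.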 The source made the active and inactive calls. Rule as the data show it: active = GI50 up to about 1.1 µM and inactive = higher.

Legend:
Experiment in all cases: DTP human tumour cell line panel, 48 h
[1] = test system: ACHN
[2] = test system: HL-60
[3] = test system: 786-0
[4] = test system: MCF7
[5] = test system: MDA-N
[6] = test system: SN12C
[7] = test system: M14
[8] = test system: KM12
[9] = test system: OVCAR-5
[10] = test system: COLO 205
[11] = test system: HCT-15
[12] = test system: HOP-62
[13] = test system: IGROV-1
[14] = test system: LOX IMVI
[15] = test system: A549
[16] = test system: RXF 393
[17] = test system: NCI-H522
[18] = test system: K562
[19] = test system: SK-OV-3
[20] = test system: UACC-62

Row | SMILES | GI50 [1] | GI50 [2] | GI50 [3] | GI50 [4] | GI50 [5] | GI50 [6] | GI50 [7] | GI50 [8] | GI50 [9] | GI50 [10] | GI50 [11] [µM] | GI50 [12] | GI50 [13] | GI50 [14] | GI50 [15] | GI50 [16] | GI50 [17] | GI50 [18] | GI50 [19] | GI50 [20]
1 | N#CC(C#N)=NNc1ccc2cn[nH]c2c1 | 33.1 µM (inactive) | 18.6 µM (inactive) | 43.6 µM (inactive) | 31.1 µM (inactive) | 43.9 µM (inactive) | 40.6 µM (inactive) | 35.6 µM (inactive) | > 100 µM (inactive) | > 100 µM (inactive) | 25.6 µM (inactive) | 83.2 | > 100 µM (inactive) | > 100 µM (inactive) | 31.4 µM (inactive) | > 100 µM (inactive) | 26.6 µM (inactive) | 12.2 µM (inactive) | 15.7 µM (inactive) | > 100 µM (inactive) | > 100 µM (inactive)
2 | O=c1c2ccccc2nc(-c2ccc(Cl)cc2)n1O | 22.5 µM (inactive) | 18.3 µM (inactive) | 22.2 µM (inactive) | 20 µM (inactive) | 35.6 µM (inactive) | 35.7 µM (inactive) | 26.4 µM (inactive) | 9.53 µM (inactive) | 47.4 µM (inactive) | 34.6 µM (inactive) | 9.55 | 9.12 µM (inactive) | 2.19 µM (inactive) | 1.11 µM (active) | 29.4 µM (inactive) | 26.7 µM (inactive) | 15.3 µM (inactive) | 22.9 µM (inactive) | 28.2 µM (inactive) | 35.9 µM (inactive)
3 | CCOC(=O)[C@@H]1C2C(=C[C@H]3[C@H]1C(=O)N1CCCC[C@H]31)CCCN2C(=O)OCc1ccccc1 (stereo not given in full) | 29.9 µM (inactive) | 20.8 µM (inactive) | 54.5 µM (inactive) | 29.5 µM (inactive) | 35.7 µM (inactive) | 47.5 µM (inactive) | 38.8 µM (inactive) | 36.2 µM (inactive) | 76.4 µM (inactive) | 23.9 µM (inactive) | 32.8 | 42.5 µM (inactive) | 41.3 µM (inactive) | 33.3 µM (inactive) | 36.1 µM (inactive) | 47.8 µM (inactive) | 18.5 µM (inactive) | 30.8 µM (inactive) | 94.8 µM (inactive) | 17.4 µM (inactive)
4 | CN1C(=O)C23CC4=CC=CC(O)C4N2C(=O)C1(CO)SS3 (stereo not given) | 0.174 µM (active) | 0.0223 µM (active) | 0.084 µM (active) | 0.16 µM (active) | 0.188 µM (active) | 0.0705 µM (active) | 0.0506 µM (active) | 0.0991 µM (active) | 0.0526 µM (active) | 0.0524 µM (active) | 0.0845 | 0.182 µM (active) | 0.145 µM (active) | 0.17 µM (active) | 0.171 µM (active) | 0.179 µM (active) | 0.169 µM (active) | 0.139 µM (active) | 1.26 µM (inactive) | 0.179 µM (active)
5 | COc1ccccc1Nc1nc(N)nc(N)c1N | > 100 µM (inactive) | 29.1 µM (inactive) | 33.4 µM (inactive) | 29.2 µM (inactive) | 17.6 µM (inactive) | 17.5 µM (inactive) | > 100 µM (inactive) | > 100 µM (inactive) | > 100 µM (inactive) | 48.2 µM (inactive) | 62.1 | > 100 µM (inactive) | 72.6 µM (inactive) | 20.8 µM (inactive) | > 100 µM (inactive) | > 100 µM (inactive) | 18.1 µM (inactive) | 45.1 µM (inactive) | > 100 µM (inactive) | 57.5 µM (inactive)
6 | CC/C(=N/O)c1ccc(Br)s1 | 92 µM (inactive) | 28.6 µM (inactive) | > 100 µM (inactive) | > 100 µM (inactive) | > 100 µM (inactive) | > 100 µM (inactive) | > 100 µM (inactive) | > 100 µM (inactive) | > 100 µM (inactive) | > 100 µM (inactive) | > 100 | > 100 µM (inactive) | 55.6 µM (inactive) | 51.9 µM (inactive) | > 100 µM (inactive) | 70.3 µM (inactive) | > 100 µM (inactive) | > 100 µM (inactive) | > 100 µM (inactive) | 84.1 µM (inactive)
7 | CN1CCN(CCCCN2c3ccccc3Sc3ccc(N=[N+]=[N-])cc32)CC1 | 8.65 µM (inactive) | 1.95 µM (inactive) | 7.76 µM (inactive) | 4.17 µM (inactive) | 2.88 µM (inactive) | 12.2 µM (inactive) | 2.05 µM (inactive) | 6.22 µM (inactive) | 9.55 µM (inactive) | 1.86 µM (inactive) | 7.36 | 15.2 µM (inactive) | 7.91 µM (inactive) | 2.47 µM (inactive) | 12.9 µM (inactive) | 5.16 µM (inactive) | 5.01 µM (inactive) | 1.89 µM (inactive) | > 10 µM (inactive) | 2.08 µM (inactive)
